Measured values reported in patent publication US20230123334A1, “AMINO LIPID COMPOUND, PREPARATION METHOD THEREFOR, AND APPLICATION THEREOF” (SHENZHEN SHENXIN BIOTECHNOLOGY CO., LTD., priority 2020, published 2023).

tested on: HEK293 cells; assay: Preliminary screening as DNA vectors, GFP transfection of HEK293 cells; format: cell-based; settings: amino lipid/DOPE liposome with 75 ng plasmid DNA (psin-EGFP-IRES-Puro); number of GFP-expressing cells divided by total nuclei (Hoechst)
Outline: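 Lipid + DOPE liposomes (NaOAc, pH 5.6) complexed w/ 75 ng psin-EGFP-IRES-Puro, 30 min RT; added to 3-5×10^4 HEK293/well, 37° C. Hoechst 0.2 μg/mL at 20-24 h, imaged after further 20-24 h. Efficiency = GFP+ cells / total nuclei.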

SMILES	Absolute DNA transfection efficiency in HEK293 cells [%]
CCCCCCCCCCCCSc1nc(NCCCCCC)nc(NCCN2CCCCC2)n1 [S12N6 D4]	0.0
CCCCCCCCCCCCSc1nc(NCCCCCC)nc(NCCN2CCN(C)CC2)n1 [S12N6 D5]	0.2
CCCCCCCCCCCCSc1nc(NCCCCCC)nc(NCCCN(C)C)n1 [S12N6 D6]	1.1
CCCCCCCCCCCCSc1nc(NCCCCCC)nc(NCCN(CC)CC)n1 [S12N6 D7]	6.5
CCCCCCCCCCCCSc1nc(NCCCCCC)nc(NCCCN2CCOCC2)n1 [S12N6 D8]	0.1
CCCCCCCCCCCCSc1nc(NCCCCCC)nc(NCCCN2CCN(C)CC2)n1 [S12N6 D9]	0.3
CCCCCCCCCCCCSc1nc(NCCCCCC)nc(NCC2CCN(C)CC2)n1 [S12N6 D10]	0.1
CCCCCCCCCCCCSc1nc(NCCCCCCC)nc(NCCN(C)C)n1 [S12N7 D1]	6.9
CCCCCCCCCCCCSc1nc(NCCCCCCC)nc(NCCN2CCOCC2)n1 [S12N7 D2]	0.1
CCCCCCCCCCCCSc1nc(NCCCCCCC)nc(NCCN2CCCC2)n1 [S12N7 D3]	3.2
CCCCCCCCCCCCSc1nc(NCCCCCCC)nc(NCCN2CCCCC2)n1 [S12N7 D4]	0.2
CCCCCCCCCCCCSc1nc(NCCCCCCC)nc(NCCN2CCN(C)CC2)n1 [S12N7 D5]	3.6
CCCCCCCCCCCCSc1nc(NCCCCCCC)nc(NCCCN(C)C)n1 [S12N7 D6]	11.2
CCCCCCCCCCCCSc1nc(NCCCCCCC)nc(NCCN(CC)CC)n1 [S12N7 D7]	3.4
CCCCCCCCCCCCSc1nc(NCCCCCCC)nc(NCCCN2CCOCC2)n1 [S12N7 D8]	0.3
CCCCCCCCCCCCSc1nc(NCCCCCCC)nc(NCCCN2CCN(C)CC2)n1 [S12N7 D9]	0.3
CCCCCCCCCCCCSc1nc(NCCCCCCC)nc(NCC2CCN(C)CC2)n1 [S12N7 D10]	5.8
CCCCCCCCCCCCSc1nc(NCCCCCCCC)nc(NCCN(C)C)n1 [S12N8 D1]	6.0
CCCCCCCCCCCCSc1nc(NCCCCCCCC)nc(NCCN2CCOCC2)n1 [S12N8 D2]	0.1
CCCCCCCCCCCCSc1nc(NCCCCCCCC)nc(NCCN2CCCC2)n1 [S12N8 D3]	1.5
CCCCCCCCCCCCSc1nc(NCCCCCCCC)nc(NCCN2CCCCC2)n1 [S12N8 D4]	0.0
CCCCCCCCCCCCSc1nc(NCCCCCCCC)nc(NCCN2CCN(C)CC2)n1 [S12N8 D5]	13.8
CCCCCCCCCCCCSc1nc(NCCCCCCCC)nc(NCCCN(C)C)n1 [S12N8 D6]	43.1
CCCCCCCCCCCCSc1nc(NCCCCCCCC)nc(NCCN(CC)CC)n1 [S12N8 D7]	0.1
CCCCCCCCCCCCSc1nc(NCCCCCCCC)nc(NCCCN2CCOCC2)n1 [S12N8 D8]	0.0

SMILES	Absolute DNA transfection efficiency in HEK293 cells [%]
CCCCCCCCCCCCSc1nc(NCCCCCCCC)nc(NCCCN2CCN(C)CC2)n1 [S12N8 D9]	8.9
CCCCCCCCCCCCSc1nc(NCCCCCCCC)nc(NCC2CCN(C)CC2)n1 [S12N8 D10]	16.3
CCCCCCCCCCCCSc1nc(NCCCCCCCCC)nc(NCCN(C)C)n1 [S12N9 D1]	4.5
CCCCCCCCCCCCSc1nc(NCCCCCCCCC)nc(NCCN2CCOCC2)n1 [S12N9 D2]	0.0
CCCCCCCCCCCCSc1nc(NCCCCCCCCC)nc(NCCN2CCCC2)n1 [S12N9 D3]	7.0
CCCCCCCCCCCCSc1nc(NCCCCCCCCC)nc(NCCN2CCCCC2)n1 [S12N9 D4]	0.1
CCCCCCCCCCCCSc1nc(NCCCCCCCCC)nc(NCCN2CCN(C)CC2)n1 [S12N9 D5]	20.2
CCCCCCCCCCCCSc1nc(NCCCCCCCCC)nc(NCCCN(C)C)n1 [S12N9 D6]	37.0
CCCCCCCCCCCCSc1nc(NCCCCCCCCC)nc(NCCN(CC)CC)n1 [S12N9 D7]	0.8
CCCCCCCCCCCCSc1nc(NCCCCCCCCC)nc(NCCCN2CCOCC2)n1 [S12N9 D8]	0.0
CCCCCCCCCCCCSc1nc(NCCCCCCCCC)nc(NCCCN2CCN(C)CC2)n1 [S12N9 D9]	10.9
CCCCCCCCCCCCSc1nc(NCCCCCCCCC)nc(NCC2CCN(C)CC2)n1 [S12N9 D10]	11.3
CCCCCCCCCCCCSc1nc(NCCCCCCCCCCC)nc(NCCN(C)C)n1 [S12N11 D1]	3.2
CCCCCCCCCCCCSc1nc(NCCCCCCCCCCC)nc(NCCN2CCOCC2)n1 [S12N11 D2]	0.3
CCCCCCCCCCCCSc1nc(NCCCCCCCCCCC)nc(NCCN2CCCC2)n1 [S12N11 D3]	30.3
CCCCCCCCCCCCSc1nc(NCCCCCCCCCCC)nc(NCCN2CCCCC2)n1 [S12N11 D4]	1.0
CCCCCCCCCCCCSc1nc(NCCCCCCCCCCC)nc(NCCN2CCN(C)CC2)n1 [S12N11 D5]	8.0
CCCCCCCCCCCCSc1nc(NCCCCCCCCCCC)nc(NCCCN(C)C)n1 [S12N11 D6]	14.9
CCCCCCCCCCCCSc1nc(NCCCCCCCCCCC)nc(NCCN(CC)CC)n1 [S12N11 D7]	5.8
CCCCCCCCCCCCSc1nc(NCCCCCCCCCCC)nc(NCCCN2CCOCC2)n1 [S12N11 D8]	0.0
CCCCCCCCCCCCSc1nc(NCCCCCCCCCCC)nc(NCCCN2CCN(C)CC2)n1 [S12N11 D9]	3.9
CCCCCCCCCCCCSc1nc(NCCCCCCCCCCC)nc(NCC2CCN(C)CC2)n1 [S12N11 D10]	19.6
CCCCCCCCCCCCNc1nc(NCCN(C)C)nc(SCCCCCCCCCCCC)n1 [S12N12 D1]	7.9
CCCCCCCCCCCCNc1nc(NCCN2CCOCC2)nc(SCCCCCCCCCCCC)n1 [S12N12 D2]	0.0
CCCCCCCCCCCCNc1nc(NCCN2CCCC2)nc(SCCCCCCCCCCCC)n1 [S12N12 D3]	31.4

SMILES	Absolute DNA transfection efficiency in HEK293 cells [%]
CCCCCCCCCCCCNc1nc(NCCN2CCCCC2)nc(SCCCCCCCCCCCC)n1 [S12N12 D4]	0.1
CCCCCCCCCCCCNc1nc(NCCN2CCN(C)CC2)nc(SCCCCCCCCCCCC)n1 [S12N12 D5]	3.5
CCCCCCCCCCCCNc1nc(NCCCN(C)C)nc(SCCCCCCCCCCCC)n1 [S12N12 D6]	9.1
CCCCCCCCCCCCNc1nc(NCCN(CC)CC)nc(SCCCCCCCCCCCC)n1 [S12N12 D7]	3.7
CCCCCCCCCCCCNc1nc(NCCCN2CCOCC2)nc(SCCCCCCCCCCCC)n1 [S12N12 D8]	0.0
CCCCCCCCCCCCNc1nc(NCCCN2CCN(C)CC2)nc(SCCCCCCCCCCCC)n1 [S12N12 D9]	5.1
CCCCCCCCCCCCNc1nc(NCC2CCN(C)CC2)nc(SCCCCCCCCCCCC)n1 [S12N12 D10]	9.3
CCCCCCCCCCCCCNc1nc(NCCN(C)C)nc(SCCCCCCCCCCCC)n1 [S12N13 D1]	1.4
CCCCCCCCCCCCCNc1nc(NCCN2CCOCC2)nc(SCCCCCCCCCCCC)n1 [S12N13 D2]	0.0
CCCCCCCCCCCCCNc1nc(NCCN2CCCC2)nc(SCCCCCCCCCCCC)n1 [S12N13 D3]	3.6
CCCCCCCCCCCCCNc1nc(NCCN2CCCCC2)nc(SCCCCCCCCCCCC)n1 [S12N13 D4]	0.5
CCCCCCCCCCCCCNc1nc(NCCN2CCN(C)CC2)nc(SCCCCCCCCCCCC)n1 [S12N13 D5]	1.5
CCCCCCCCCCCCCNc1nc(NCCCN(C)C)nc(SCCCCCCCCCCCC)n1 [S12N13 D6]	7.0
CCCCCCCCCCCCCNc1nc(NCCN(CC)CC)nc(SCCCCCCCCCCCC)n1 [S12N13 D7]	12.9
CCCCCCCCCCCCCNc1nc(NCCCN2CCOCC2)nc(SCCCCCCCCCCCC)n1 [S12N13 D8]	0.0
CCCCCCCCCCCCCNc1nc(NCCCN2CCN(C)CC2)nc(SCCCCCCCCCCCC)n1 [S12N13 D9]	2.1
CCCCCCCCCCCCCNc1nc(NCC2CCN(C)CC2)nc(SCCCCCCCCCCCC)n1 [S12N13 D10]	2.4
CCCCCCCCCCCCCCCNc1nc(NCCN(C)C)nc(SCCCCCCCCCCCC)n1 [S12N15 D1]	0.8
CCCCCCCCCCCCCCCNc1nc(NCCN2CCOCC2)nc(SCCCCCCCCCCCC)n1 [S12N15 D2]	0.0
CCCCCCCCCCCCCCCNc1nc(NCCN2CCCC2)nc(SCCCCCCCCCCCC)n1 [S12N15 D3]	2.0
CCCCCCCCCCCCCCCNc1nc(NCCN2CCCCC2)nc(SCCCCCCCCCCCC)n1 [S12N15 D4]	1.0
CCCCCCCCCCCCCCCNc1nc(NCCN2CCN(C)CC2)nc(SCCCCCCCCCCCC)n1 [S12N15 D5]	0.2
CCCCCCCCCCCCCCCNc1nc(NCCCN(C)C)nc(SCCCCCCCCCCCC)n1 [S12N15 D6]	0.9
